{"source": "patent US20100204136A1", "about": "“USE OF A PEPTIDE AS A THERAPEUTIC AGENT” (priority 2007, published 2010)", "key": {"[1]": {"test_system": "HIV-1IIIB", "test": "HIV-1 antiviral assay (CPE reduction, MTS)", "assay_type": "cell-based", "conditions": "peptide 10 micrograms per ml; 6 days post-infection"}, "[2]": {"test_system": "CEM-SS cells", "test": "Cytotoxicity in HIV-1 assay (MTS cell viability)", "conditions": "peptide 10 micrograms per ml"}, "[3]": {"test_system": "MRC-5 cells", "conditions": "human, 6 days", "experimental": "For cytotoxicity testing, MRC-5 cells were seeded at 2,500 cells/well in 96 well plates using growth medium. […] The following day, peptide was added and tested in duplicates. After a 6 days incubation period, cell viability was measured using CellTiter 96 Solution (Promega). Plates were incubated for additional 4 hours at 37° C. Adhesive plate sealers were used in place of lids, the sealed plates were inverted several times to mix the soluble formazan product and the plate was read spectrophotometrically at 490/560 nm with a Molecular Devices Vmax plate reader."}, "[4]": {"test_system": "HepG2-2.2.15 cells", "test": "Cytotoxicity in HBV assay (dye uptake cell viability)", "assay_type": "cell-based", "conditions": "test peptide 10 micrograms per ml"}}, "data": [{"smiles": "Cc1cn([C@H]2C[C@H](N=[N+]=[N-])[C@@H](CO)O2)c(=O)[nH]c1=O", "note": "[AZT]", "values": [{"measurement": "% CPE reduction in HIV-1 infected CEM-SS cells", "setting": "[1]", "result": 99, "unit": "%"}, {"measurement": "% Cell viability", "setting": "[2]", "result": 97, "unit": "%"}]}, {"smiles": "Nc1nc(O)c2ncn(COC(CO)CO)c2n1", "note": "[Ganciclovir]", "values": [{"measurement": "% Cell viability", "setting": "[3]", "result": 100, "unit": "%"}]}, {"smiles": "Nc1ccn([C@@H]2CS[C@H](CO)O2)c(=O)n1", "note": "[Compound 3TC]", "values": [{"measurement": "% Cell viability", "setting": "[4]", "result": 95.8, "unit": "%"}]}]}
